Experimental data taken from ChEMBL document CHEMBL5634117 (Eur J Med Chem, 2023).
Active and inactive are the calls of the source. No cut-off for these calls is given here.

Assays:
K562 [1] = experiment: Induction of cell cycle arrest in human K562 cells assessed as accumulation of cells at SubG1 phase at 5 uM measured after 24 hrs by PI staining based flow cytometry analysis (reference value: 3.43%); type: functional
K562 [2] = experiment: Induction of cell cycle arrest in human K562 cells assessed as accumulation of cells at SubG1 phase at 1.25 uM measured after 24 hrs by PI staining based flow cytometry analysis (reference value: 3.43%); type: functional
K562 [3] = experiment: Induction of cell cycle arrest in human K562 cells assessed as accumulation of cells at S phase at 0.64 uM measured after 24 hrs by PI staining based flow cytometry analysis (reference value: 21.74%); type: functional
K562 [4] = experiment: Induction of autophagy in human K562 cells assessed as increase in beclin-1 level at 2.5 to 5 uM measured after 24 hrs by Western blotting analysis; type: functional, cell-based; conditions: dose 2.5-5 µM
K562 [5] = experiment: Induction of cell cycle arrest in human K562 cells assessed as accumulation of cells at G0/G1 phase at 0.64 uM measured after 24 hrs by PI staining based flow cytometry analysis (reference value: 46.71%); type: functional
K562 [6] = experiment: Induction of apoptosis in human K562 cells assessed as early apoptotic cells at 2.5 uM incubated for 24 hrs by annexinV and propidium iodide staining based flow cytometry analysis (reference value: 0.42%); type: functional
K562 [7] = experiment: Induction of apoptosis in human K562 cells assessed as early apoptotic cells at 0.64 uM incubated for 24 hrs by annexinV and propidium iodide staining based flow cytometry analysis (reference value: 1.17%); type: functional
[8] = Cytotoxicity against African green monkey Vero cells assessed as decrease in number of viable cells at 30 uM measured after 48 hrs by SRB assay relative to control; type: toxicity, cell-based; conditions: chlorocebus sabaeus
K562 [9] = experiment: Induction of cell cycle arrest in human K562 cells assessed as accumulation of cells at G2/M phase at 0.64 uM measured after 24 hrs by PI staining based flow cytometry analysis (reference value: 25.62%); type: functional

Row | SMILES | Activity (K562 [1]) [%] | Activity (K562 [2]) [%] | Activity (K562 [3]) [%] | Activity (K562 [4]) | Activity (K562 [5]) [%] | Activity (K562 [6]) [%] | Activity (K562 [7]) [%] | Activity [8] [%] | Activity (K562 [9]) [%]
1 | O=C1c2ccccc2-c2n[nH]c3cccc1c23 | 4.01 | 4.71 | 18.56 | Active | 27.69 | 1.17 | – | – | –
2 | CC(C)(C)n1cc(-c2ccnc(NCCCNS(=O)(=O)c3ccc(Cl)cc3)c2)c(-c2cccc(O)c2)n1 | – | – | – | – | – | – | 1.07 | 53 | 51.01
